Assay results published in patent EP2522331A1, “Use of resveratrol and niacinamide” (DSM IP Assets B.V., priority 2011, dated 2012).
Read-outs that look alike come from different tables or passages of the source.

Test system: MYO5A
Experiment: Gene modulation (RT-qPCR, PCR array mQPA H-Melanocyte-64) in normal human epidermal melanocytes (NHEM)
Assay type: cell-based
Conditions: NHEM cells
Experimental: Normal human epidermal melanocytes were cultivated for 24 hours. Culture medium was then removed and replaced by fresh medium containing the active ingredient to be evaluated or exempt of it (control). Cells were cultivated for additional 72 hours. All experimental conditions were performed in triplicate.
At the end of the cultivation, the cells were harvested and washed with phosphate buffered saline (PBS) solution and immediately frozen at -80 °C. The expression of selected markers was analyzed using RT-qPCR method on mRNA extracted from cells layer for each treatment condition. The differential expression analysis was performed by PCR arrays of the screening format "mQPA H-Melanocyte-64", which focuses on 64 genes selected for their importance in pigmentation and melanocyte biology.
Total RNA was extracted from each sample using TRI-Reagent®. The amount and quality of the RNA was evaluated using a lab-on-a-chip Bioanalyzer (Agilent technologies). Potential contaminants traces of DNA were removed […] The incorporation of fluorescence in amplified DNA was measured continuously during the PCR cycles. […] The value selected for RE calculations is the "output point" (Ct) of the fluorescence curve. For a given marker, the highest is the cycle number; the lowest, is the mRNA quantity. The RE value is expressed in arbitrary units (AU) according to the equation: (((1)/(2)))^NC x 10^6 [formula] Where NC is the number of cycles.
The analysis of the gene expression of selected melanogenesis genes in NEHM cells treated with resveratrol (5 micrograms/ml) on one side, and Niaciamide (0.5 mg/ml) on the other side, has been compared with the gene expression of the same selected melanogenesis genes in NEHM cells treated with a combination of resveratrol (5 micrograms/ml) and Niaciamide (0.5 mg/ml).

[1] = 72 hours treatment, resveratrol 5 µg/ml, niacinamide 0.5 mg/ml, combination 5 µg/ml + 0.5 mg/ml, read-out: MYO5A (expression ratio compared to control)
[2] = 72 hours, resveratrol 5 micrograms/ml alone or niacinamide 0.5 mg/ml alone, read-out: down-regulation of MYO5A (signed change when compared to untreated cells)

Structure (SMILES)	inhibition at 500 µg/mL [1]	inhibition at 500 µg/mL [2]	inhibition at 5 µg/mL [1]	inhibition at 5 µg/mL [2]
NC(=O)c1cccnc1 [Niacinamide, 3-pyridinecarboxamide]	15%	15%	–	–
Oc1ccc(C=Cc2cc(O)cc(O)c2)cc1 [Resveratrol, 3,4',5 trihydroxystilbene]	–	–	25%	25%
